This note sets out measurements from patent publication US20250295652A1, “Inhibitors of Molluscum Contagiosum Infection and Methods Using the Same” (priority 2021, published 2025).

pEC50, pIC50: −log10 of the molar value. Like-named read-outs stand apart in the source and are kept apart here. Some results are limits rather than exact numbers.

Data set [1] has as its target T1, D4 (Vaccinia virus, UniProt P04303, Y163F). The format is binding.
Another data set concerns the target T2, MBP (Escherichia coli, UniProt P0AEX9).
T2 construct: made in house; host or cells: bacterial cells, crude lysate
The experiment in a line: DARTS, unrelated control protein MBP. To be noted: crude cell lysates. The format is binding.

Data set [2] concerns human estrogen receptor beta (ERβ-N), MBP fusion. The experiment in a line: DARTS, unrelated control protein ERβ-N. To be noted: crude cell lysates. The format is binding.
The test system of data set [3] is duplex or single-stranded DNA. The experiment in a line: Isothermal titration calorimetry (ITC) DNA binding. To be noted: 40 μM compound, 25° C. The method, then: Fish sperm DNA (USB Scientific, USA) was dissolved in water and fragmented by sonication in order to generate a random DNA mix. The fragmented DNA was then dialyzed into column buffer absence of glycerol. The 15-mer oligomer comprised of poly d(TC) (Integrated DNA Technologies, USA) was directly prepared in the same buffer without the dialysis step. DNA and compounds were prepared in the same dialysis buffer with added 2.5 mM DTT, 1% DMSO, and 0.005% Tween-20. DNA binding was then assessed by isothermal titration calorimetry (ITC) on a MicroCal iTC200 microcalorimeter (Malvern Instruments, United Kingdom) by titrating 3 μL/injection of 1.2 mg/mL of random DNA (with unknown molar concentration) or 5.3 mg/L of single-stranded DNA into the sample consisting of 40 μM of compound. Experiments were performed at 25° C. with 800 rpm stirring and 3-min spacing in order to allow equilibration. Ethidium bromide (Sigma-Aldrich, USA) was freshly prepared in water. Since the molar concentrations of the DNA ligands were undefined, only raw heat values are depicted.

In a further data set the test system is VV. Nature of the data set: microbe, parasite or virus in culture. To be noted: Orthopoxvirus vaccinia, BSC-1, read-out: VV EC50. The data set is classed as cell-based, vaccinia virus.
Data set [4] concerns the target T3, E9/A20/D4 proteins (vaccinia virus vD4) (Vaccinia virus, UniProt P04303, Y163F).
T3 construct: made in house; host or cells: TNT reticulocyte lysate (in vitro translation)
The data set is classed as biochemical.

For another data set, the system named is mD4-VV surrogate virus. The experiment in a line: microbe, parasite or virus in culture. The format is cell-based, mD4/vaccinia hybrid virus. Particulars: Hybrid virus, BSC-1, read-out: mD4 EC50.
Data set [5] has as its target E9/A20/D4 proteins (molluscum mD4) (Molluscum contagiosum virus, UniProt Q98260). Nature of the data set: biochemical.
The target of data set [6] is UL30 (DNA polymerase) and UL42 (processivity factor) (Human herpesvirus 1, UniProt P04293+P10226). The data set is classed as biochemical, HSV-1.
Sequence of UL30 (DNA polymerase) and UL42 (processivity factor) (P10226 whole entry): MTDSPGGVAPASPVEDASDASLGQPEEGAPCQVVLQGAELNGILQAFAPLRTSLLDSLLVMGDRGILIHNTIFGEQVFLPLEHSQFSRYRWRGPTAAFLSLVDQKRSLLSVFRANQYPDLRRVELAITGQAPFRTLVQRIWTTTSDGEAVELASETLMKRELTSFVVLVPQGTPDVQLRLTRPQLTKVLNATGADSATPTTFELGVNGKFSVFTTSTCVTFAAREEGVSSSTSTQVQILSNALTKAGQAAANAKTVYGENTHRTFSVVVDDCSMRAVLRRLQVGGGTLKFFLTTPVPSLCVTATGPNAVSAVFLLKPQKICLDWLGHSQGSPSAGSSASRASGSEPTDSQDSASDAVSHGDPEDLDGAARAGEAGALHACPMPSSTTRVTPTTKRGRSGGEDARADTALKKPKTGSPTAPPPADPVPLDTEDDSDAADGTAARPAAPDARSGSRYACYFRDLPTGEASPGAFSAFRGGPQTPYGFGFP
Sequence of UL30 (DNA polymerase) and UL42 (processivity factor) (P04293 whole entry): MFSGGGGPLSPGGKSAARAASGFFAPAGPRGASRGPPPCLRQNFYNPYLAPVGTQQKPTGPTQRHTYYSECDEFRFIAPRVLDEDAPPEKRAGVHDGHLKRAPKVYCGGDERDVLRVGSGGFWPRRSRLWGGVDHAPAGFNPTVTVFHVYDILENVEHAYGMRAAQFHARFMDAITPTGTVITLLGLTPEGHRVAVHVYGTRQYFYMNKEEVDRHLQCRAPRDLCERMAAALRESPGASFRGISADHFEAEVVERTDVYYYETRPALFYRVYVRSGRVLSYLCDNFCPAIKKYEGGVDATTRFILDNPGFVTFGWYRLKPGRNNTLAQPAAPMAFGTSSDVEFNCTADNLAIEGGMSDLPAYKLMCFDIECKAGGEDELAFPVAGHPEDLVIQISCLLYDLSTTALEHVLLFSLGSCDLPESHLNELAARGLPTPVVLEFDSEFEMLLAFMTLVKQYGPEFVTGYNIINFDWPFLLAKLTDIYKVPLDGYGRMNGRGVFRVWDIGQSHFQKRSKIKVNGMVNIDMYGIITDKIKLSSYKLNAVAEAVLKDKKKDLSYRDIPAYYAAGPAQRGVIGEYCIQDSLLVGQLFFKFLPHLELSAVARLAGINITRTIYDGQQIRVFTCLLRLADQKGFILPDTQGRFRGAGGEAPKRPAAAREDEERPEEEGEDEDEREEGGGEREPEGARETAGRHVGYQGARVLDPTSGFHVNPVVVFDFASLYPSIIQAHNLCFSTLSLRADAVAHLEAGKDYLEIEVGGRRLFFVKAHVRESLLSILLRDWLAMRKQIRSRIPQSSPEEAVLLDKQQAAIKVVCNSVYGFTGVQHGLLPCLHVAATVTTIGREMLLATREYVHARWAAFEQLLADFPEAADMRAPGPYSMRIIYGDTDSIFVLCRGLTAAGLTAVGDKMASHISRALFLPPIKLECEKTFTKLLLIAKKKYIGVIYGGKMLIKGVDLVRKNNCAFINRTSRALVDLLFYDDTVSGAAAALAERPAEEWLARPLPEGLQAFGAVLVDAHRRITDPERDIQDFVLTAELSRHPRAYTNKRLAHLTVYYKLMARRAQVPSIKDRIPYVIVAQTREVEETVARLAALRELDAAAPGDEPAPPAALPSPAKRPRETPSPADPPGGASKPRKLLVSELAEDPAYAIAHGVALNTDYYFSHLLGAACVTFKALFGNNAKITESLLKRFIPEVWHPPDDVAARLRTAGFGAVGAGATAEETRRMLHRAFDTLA
The subject of a further data set is HSV-1. The data set is classed as cell-based. Particulars: Vero cells.
Data set [7] addresses T1, D4. The data set is classed as binding. Also noted: made in house; host or cells: bacterial cells (IPTG induction); purified for SPR, crude lysate for DARTS.
Data set [8] in a line: Irritancy on human cadaver skin. Particulars: gel formulated 99. The method, then:
Briefly, gel was applied to shaved skin areas, covered for 24 hours and irritancy was measured daily for 3 days after uncovering using the Draize scoring system.

Data set [9] can be described thus: Solubility in receptor medium. Particulars: 1×PBS/4% BSA receptor medium, typical IVPT study. From the text:
For this study, human torso skin was used rather than a membrane. Initially, methods development was done to identify the receiving medium in the reservoir of the Franz cell apparatus which provided the greatest compound solubility so that percentages of full penetration would not be underestimated due to poor solubility.

A short description of another data set: in vitro. Particulars: African green monkey.

Sequence of E9/A20/D4 proteins (molluscum mD4) (Q98260 1-226): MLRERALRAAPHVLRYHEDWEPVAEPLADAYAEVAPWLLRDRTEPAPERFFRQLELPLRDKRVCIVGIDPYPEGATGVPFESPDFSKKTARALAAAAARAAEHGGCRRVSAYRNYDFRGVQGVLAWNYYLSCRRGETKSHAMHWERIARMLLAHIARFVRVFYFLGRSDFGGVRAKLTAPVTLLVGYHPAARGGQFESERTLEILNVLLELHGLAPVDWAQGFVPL

In the case of `CCC(C(=O)Nc1sc(C(N)=O)c(C)c1C(=O)OC)c1ccccc1` (stereo not shown) [Compound 1, methyl 5-carbamoyl-4-methyl-2-(2-phenylbutanamido)thiophene-3-carboxylate], the ΔTm at D4 [1] (25 µM) is recorded as −0.86; at D4 [1] (50 µM) it was −1.55. Besides, at MBP, the “effect on MBP protein levels after proteolysis (in words)” value was “inability”. Moreover, the “effect on ERβ-N protein levels after proteolysis (in words)” value in data set [2] was “inability”. Besides, the “DNA binding heat traces (in words)” value in [3] is on record as “no appreciable total heats”. The figures for the pEC50 with VV and with mD4-VV surrogate virus were 4.82 and 4.64, respectively. Moreover, the “inhibition of VACV DNA synthesis compared with mD4 reaction (in words)” value in data set [4] is recorded as “Nearly identical inhibition”. Besides, in [5], the pIC50 – broadly, −log10 of the IC50, conventionally taken in molar units – was 4.79. The “inhibition of DNA synthesis using HSV-1 proteins (in words)” value in [6] is “no inhibition”. Also, the “antiviral activity against HSV-1 infection (in words)” value in the data set on HSV-1 is reported as “lack of antiviral activity”. The “effect on D4 protein levels after Pronase proteolysis (in words)” value on D4 [7] was “increase in D4 protein levels”.

Take `CCC(C(=O)Nc1sc(C(N)=O)c(C)c1C(=O)OC)c1ccc(F)cc1` (stereo not shown) [Compound 99, 5-Carbamoyl-2-[2-(4-fluoro-phenyl)-butyrylamino]-4-methyl-thiophene-3-carboxylic acid methyl ester]: the pEC50 (as a rule, the negative decadic logarithm of the EC50, by convention in mol/L) in the data set on VV is 5.05; in the data set on mD4-VV surrogate virus it was 5.06. Moreover, the pIC50 in data set [5] was 5.05. Further, the irritancy score entry in [8] is reported as “non-irritant”. For the same compound, in [9], the “solubility sufficient to detect % of the applied amount” value is “up to 143%”.

`CCC(C(=O)Nc1sc(C(=O)O)c(C)c1C(=O)OC)c1ccc(C(F)(F)F)cc1` (stereo not shown) [Compound 199, 4-(methoxycarbonyl)-5-(2-(4-(trifluoromethyl)phenyl)butanamido)-3-methylthiophene-2-carboxylic acid]: the pEC50 in the data set with mD4-VV surrogate virus is 4.75. The same compound had a CC50 in “in vitro” above 100 µM.
